According to patent publication US20240360126A1, “PYRAZOLO[3,4-B]PYRIDINE COMPOUNDS FOR THE TREATMENT OF AUTOIMMUNE DISEASE” (Hoffmann-La Roche Inc., priority 2021, published 2024):

target: T1, human TLR8 (Homo sapiens, UniProt Q9NR97); experiment: HEK293-Blue-hTLR-8 cells assay; format: cell-based; details: HEK293-Blue-hTLR8 cells, R848 stimulation, 20 hrs; read-out: HEK/hTLR8 IC50
T1 construct: host or cells: HEK293 (HEK-Blue hTLR8)
T1 sequence (Q9NR97 27-1041): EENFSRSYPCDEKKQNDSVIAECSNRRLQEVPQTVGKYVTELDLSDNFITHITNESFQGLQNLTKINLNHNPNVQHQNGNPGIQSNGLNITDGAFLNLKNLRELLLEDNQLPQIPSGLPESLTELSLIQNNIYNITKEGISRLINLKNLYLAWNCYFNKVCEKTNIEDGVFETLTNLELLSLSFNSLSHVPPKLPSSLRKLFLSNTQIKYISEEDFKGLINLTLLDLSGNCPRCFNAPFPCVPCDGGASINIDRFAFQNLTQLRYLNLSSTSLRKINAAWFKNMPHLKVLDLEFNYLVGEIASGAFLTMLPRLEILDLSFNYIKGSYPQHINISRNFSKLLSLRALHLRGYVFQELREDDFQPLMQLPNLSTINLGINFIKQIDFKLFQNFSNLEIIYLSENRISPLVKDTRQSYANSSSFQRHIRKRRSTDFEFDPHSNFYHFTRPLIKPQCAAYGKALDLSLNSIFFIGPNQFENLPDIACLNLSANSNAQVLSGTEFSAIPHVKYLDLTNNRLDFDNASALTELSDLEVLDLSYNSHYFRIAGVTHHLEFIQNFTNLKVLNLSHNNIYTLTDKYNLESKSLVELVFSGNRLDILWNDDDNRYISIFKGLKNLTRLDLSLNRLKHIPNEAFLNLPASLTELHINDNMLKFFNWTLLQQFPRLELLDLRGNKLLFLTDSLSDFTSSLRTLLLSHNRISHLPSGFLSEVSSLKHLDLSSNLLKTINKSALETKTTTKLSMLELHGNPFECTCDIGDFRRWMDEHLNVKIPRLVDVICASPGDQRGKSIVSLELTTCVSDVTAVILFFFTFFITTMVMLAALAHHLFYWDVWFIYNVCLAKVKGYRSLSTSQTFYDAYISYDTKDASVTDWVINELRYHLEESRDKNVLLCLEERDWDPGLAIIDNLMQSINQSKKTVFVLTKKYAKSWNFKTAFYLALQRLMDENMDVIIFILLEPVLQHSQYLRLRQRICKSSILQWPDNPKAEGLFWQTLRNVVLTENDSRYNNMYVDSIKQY
From the text: A stable HEK293-Blue-hTLR-8 cell line was purchased from InvivoGen (Cat. #: hkb-htlr8, San Diego, California, USA). These cells were originally designed for studying the stimulation of human TLR8 by monitoring the activation of NF-κB. A SEAP (secreted embryonic alkaline phosphatase) reporter gene was placed under the control of the IFN-β minimal promoter fused to five NF-κB and AP-1-binding sites. The SEAP was induced by activating NF-κB and AP-1 via stimulating HEK-Blue hTLR8 cells with TLR8 ligands. Therefore the reporter expression was declined by TLR8 antagonist under the stimulation of a ligand, such as R848, for incubation of 20 hrs. The cell culture supernatant SEAP reporter activity was determined using QUANTT-BlueTv™ kit (Cat. #: rep-qbl, Invivogen, San Diego, Ca, USA) at a wavelength of 640 nm, a detection medium that turns purple or blue in the presence of alkaline phosphatase.
HEK293-Blue-hTLR8 cells were incubated at a density of 250,000˜450,000 cells/mL in a volume of 170 μL in a 96-well plate in Dulbecco's Modified Eagle's medium (DMEM) containing 4.5 g/L glucose, 50 U/mi penicillin, […] streptomycin, […], 2 mM L-glutamine, 10% (v/v) heat-inactivated fetal bovine serum with addition of 20 μL test compound in a serial dilution in the presence of final DMSO at 1% and 10 μL of 60 μM R848 in above DMEM, perform incubation under 37° C. in a CO2 incubator for 20 hrs. Then 20 μL of the supernatant from each well was incubated with 180 μL Quanti-blue substrate solution at 37° C. for 2 hrs and the absorbance was read at 620-655 nm using a spectrophotometer. The signaling pathway that TLR8 activation leads to downstream NF-κB activation has been widely accepted, and therefore similar reporter assay was modified for evaluating TLR8 antagonist.

Compound | IC50
Cc1cc(N2CCC(c3ccc(N4CCNCC4)cc3)CC2)c2cnn(C)c2n1 [Example 1, 1,6-dimethyl-4-[4-(4-piperazin-1-ylphenyl)-1-piperidyl]pyrazolo[3,4-b]pyridine] | 12 nM
Cc1cc(N2CCC(c3ccc(N4CCNCC4)cn3)CC2)c2cnn(C)c2n1 [Example 2, 1,6-dimethyl-4-[4-(5-piperazin-1-yl-2-pyridyl)-1-piperidyl]pyrazolo[3,4-b]pyridine] | 21 nM
Cc1cc(N2CCC(c3cnc(N4CCNCC4)cn3)CC2)c2cnn(C)c2n1 [Example 3, 1,6-dimethyl-4-[4-(5-piperazin-1-ylpyrazin-2-yl)-1-piperidyl]pyrazolo[3,4-b]pyridine] | 50 nM
Cc1cc(N2CCC(c3ncc(N4CCNCC4)cn3)CC2)c2cnn(C)c2n1 [Example 4, 1,6-dimethyl-4-[4-(5-piperazin-1-ylpyrimidin-2-yl)-1-piperidyl]pyrazolo[3,4-b]pyridine] | 59 nM
Cc1cc(N2CCNCC2)cnc1C1CCN(c2ccnc3c2cnn3C)CC1 [Example 5, 1-methyl-4-[4-(3-methyl-5-piperazin-1-yl-2-pyridyl)-1-piperidyl]pyrazolo[3,4-b]pyridine] | 64 nM
Cc1cc(N2CCNCC2)ncc1C1CCN(c2ccnc3c2cnn3C)CC1 [Example 6, 1-methyl-4-[4-(4-methyl-6-piperazin-1-yl-3-pyridyl)-1-piperidyl]pyrazolo[3,4-b]pyridine] | 37 nM
Cc1cc(N2CCC(c3ncc(N4CCNCC4)cc3C)CC2)c2cnn(C)c2n1 [Example 7, 1,6-dimethyl-4-[4-(3-methyl-5-piperazin-1-yl-2-pyridyl)-1-piperidyl]pyrazolo[3,4-b]pyridine] | 29 nM
Cc1cc(N2CCC(c3cc(C)c(N4CCNCC4)cn3)CC2)c2cnn(C)c2n1 [Example 9, 1,6-dimethyl-4-[4-(4-methyl-5-piperazin-1-yl-2-pyridyl)-1-piperidyl]pyrazolo[3,4-b]pyridine] | 31 nM
Cc1cc(N2CCC(c3ccc(N4CCNCC4)nc3C)CC2)c2cnn(C)c2n1 [Example 10, 1,6-dimethyl-4-[4-(2-methyl-6-piperazin-1-yl-3-pyridyl)-1-piperidyl]pyrazolo[3,4-b]pyridine] | 13 nM
Cc1cc(N2CCC(c3cnc(N4CCNCC4)nc3C)CC2)c2cnn(C)c2n1 [Example 11, 1,6-dimethyl-4-[4-(4-methyl-2-piperazin-1-yl-pyrimidin-5-yl)-1-piperidyl]pyrazolo[3,4-b]pyridine] | 42 nM
CCc1cc(N2CCNCC2)cnc1C1CCN(c2cc(C)nc3c2cnn3C)CC1 [Example 13, 4-[4-(3-ethyl-5-piperazin-1-yl-2-pyridyl)-1-piperidyl]-1,6-dimethyl-pyrazolo[3,4-b]pyridine] | 44 nM
COc1cc(N2CCNCC2)cnc1C1CCN(c2cc(C)nc3c2cnn3C)CC1 [Example 14, 4-[4-(3-methoxy-5-piperazin-1-yl-2-pyridyl)-1-piperidyl]-1,6-dimethyl-pyrazolo[3,4-b]pyridine] | 13 nM
Cc1cc(N2CCC(c3ncc(N4CC[C@@H](N)[C@@H](F)C4)cc3C)CC2)c2cnn(C)c2n1 [Example 15, (3S,4R)-1-[6-[1-(1,6-dimethylpyrazolo[3,4-b]pyridin-4-yl)-4-piperidyl]-5-methyl-3-pyridyl]-3-fluoro-piperidin-4-amine] | 47 nM
COC[C@H]1CN(c2cnc(C3CCN(c4cc(C)nc5c4cnn5C)CC3)c(C)c2)CCN1 [Example 16, 4-[4-[5-[(3R)-3-(methoxymethyl)piperazin-1-yl]-3-methyl-2-pyridyl]-1-piperidyl]-1,6-dimethyl-pyrazolo[3,4-b]pyridine] | 32 nM
CO[C@H]1CN(c2cnc(C3CCN(c4cc(C)nc5c4cnn5C)CC3)c(C)c2)CC[C@@H]1N [Example 17, (3S,4S)-1-[6-[1-(1,6-dimethylpyrazolo[3,4-b]pyridin-4-yl)-4-piperidyl]-5-methyl-3-pyridyl]-3-methoxy-piperidin-4-amine] | 39 nM
CO[C@@H]1CN(c2cnc([C@@H]3CCN(c4cc(C)nc5c4cnn5C)C[C@H]3C)c(C)c2)C[C@H]1N [Example 26, (3R,4R)-1-[6-[(3S,4R)-1-(1,6-dimethylpyrazolo[3,4-b]pyridin-4-yl)-3-methyl-4-piperidyl]-5-methyl-3-pyridyl]-4-methoxy-pyrrolidin-3-amine] | 14 nM

The next compounds have a lower IC50 than those just listed; values first:

IC50 | Compound
8 nM | Cc1cc(N2CCC(c3cnc(N4CCNCC4)cc3C)CC2)c2cnn(C)c2n1 [Example 8, 1,6-dimethyl-4-[4-(4-methyl-6-piperazin-1-yl-3-pyridyl)-1-piperidyl]pyrazolo[3,4-b]pyridine]
7 nM | Cc1cc(N2CCC(c3ncc(N4CCNCC4)nc3C)[C@H](C)C2)c2cnn(C)c2n1 (single isomer, unassigned) [Example 23, 1,6-dimethyl-4-[trans-3-methyl-4-(3-methyl-5-piperazin-1-yl-pyrazin-2-yl)-1-piperidyl]pyrazolo[3,4-b]pyridine]
7 nM | Cc1cc(N2CCC(c3ncc(N4CCNCC4)cc3C)[C@H](C)C2)c2cnn(C)c2n1 (single isomer, unassigned) [Example 25, 1,6-dimethyl-4-[trans-3-methyl-4-(3-methyl-5-piperazin-1-yl-2-pyridyl)-1-piperidyl]pyrazolo[3,4-b]pyridine]
7 nM | Cc1cc(N2CC[C@@H](c3ncc(N4CC5(CNCCO5)C4)cc3C)[C@H](C)C2)c2cnn(C)c2n1 [Example 27, 2-[6-[(3S,4R)-1-(1,6-dimethylpyrazolo[3,4-b]pyridin-4-yl)-3-methyl-4-piperidyl]-5-methyl-3-pyridyl]-5-oxa-2,8-diazaspiro[3.5]nonane]
6 nM | Cc1cc(N2CCC(c3cnc(N4CCNCC4)cc3C)[C@H](C)C2)c2cnn(C)c2n1 (single isomer, unassigned) [Example 20, 1,6-dimethyl-4-[cis-3-methyl-4-(4-methyl-6-piperazin-1-yl-3-pyridyl)-1-piperidyl]pyrazolo[3,4-b]pyridine]
6 nM | Cc1cc(N2CCC(c3ncc(N4CCNCC4)nc3C)[C@H](C)C2)c2cnn(C)c2n1 (single isomer, unassigned) [Example 22, 1,6-dimethyl-4-[cis-3-methyl-4-(3-methyl-5-piperazin-1-yl-pyrazin-2-yl)-1-piperidyl]pyrazolo[3,4-b]pyridine]
5 nM | Cc1cc(N2CCC(c3ncc(N4CCNCC4)cc3C)[C@H](C)C2)c2cnn(C)c2n1 (single isomer, unassigned) [Example 24, 1,6-dimethyl-4-[cis-3-methyl-4-(3-methyl-5-piperazin-1-yl-2-pyridyl)-1-piperidyl]pyrazolo[3,4-b]pyridine]
3 nM | Cc1cc(N2CCC(c3cnc(N4CCNCC4)cc3C)[C@H](C)C2)c2cnn(C)c2n1 (single isomer, unassigned) [Example 21, 1,6-dimethyl-4-[trans-3-methyl-4-(4-methyl-6-piperazin-1-yl-3-pyridyl)-1-piperidyl]pyrazolo[3,4-b]pyridine]
2 nM | Cc1cc(N2CC[C@@H](c3ncc(N4CCOC[C@@H](N)C4)cc3C)[C@H](C)C2)c2cnn(C)c2n1 [Example 28, (6S)-4-[6-[(3S,4R)-1-(1,6-dimethylpyrazolo[3,4-b]pyridin-4-yl)-3-methyl-4-piperidyl]-5-methyl-3-pyridyl]-1,4-oxazepan-6-amine]
